From ChEMBL document CHEMBL5360660, “Cyclin-Dependent Kinase Degradation via E3 Ligase Binding for Potential Disease Modulation in Cancer Treatment” (ACS Med Chem Lett, 2023)
pIC50, pKd: −log10 of the molar value.

Assays:
[1] = target: Cyclin-dependent kinase 5 (Homo sapiens, UniProt Q00535); experiment: Binding affinity to CDK5 (unknown origin) assessed as dissociation constant
[2] = target: Cyclin-dependent kinase 9 (Homo sapiens, UniProt P50750); experiment: Binding affinity to CDK9 (unknown origin) assessed as dissociation constant
[3] = target: Protein cereblon/Cyclin-dependent kinase 9 (Homo sapiens, UniProt P50750+Q96SW2); experiment: PROTAC activity at CRBN/CDK9 in HEK293 cells assessed as induction of CDK9 degradation incubated for 24 hrs by Western blotting analysis; type: cell-based
[4] = target: Protein cereblon/Cyclin-dependent kinase 5 (Homo sapiens, UniProt Q00535+Q96SW2); experiment: PROTAC activity at CRBN/CDK5 in HEK293 cells assessed as induction of CDK5 degradation incubated for 24 hrs by Western blotting analysis; type: cell-based
[5] = target: Protein cereblon/Cyclin-dependent kinase 2 (Homo sapiens, UniProt P24941+Q96SW2); experiment: PROTAC activity at CRBN/CDK2 in HEK293 cells assessed as induction of CDK2 degradation incubated for 24 hrs by Western blotting analysis; type: cell-based

Sequence of Protein cereblon/Cyclin-dependent kinase 9 (P50750 whole entry): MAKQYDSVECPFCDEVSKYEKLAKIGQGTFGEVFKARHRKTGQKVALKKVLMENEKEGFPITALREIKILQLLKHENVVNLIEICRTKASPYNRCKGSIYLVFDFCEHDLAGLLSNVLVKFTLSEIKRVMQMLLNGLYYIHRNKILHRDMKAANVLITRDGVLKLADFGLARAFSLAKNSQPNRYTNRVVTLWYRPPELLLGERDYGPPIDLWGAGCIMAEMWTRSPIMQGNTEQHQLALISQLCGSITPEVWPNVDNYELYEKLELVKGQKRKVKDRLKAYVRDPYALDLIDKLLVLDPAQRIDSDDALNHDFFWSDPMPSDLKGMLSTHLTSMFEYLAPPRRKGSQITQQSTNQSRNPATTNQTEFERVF
Sequence of Protein cereblon/Cyclin-dependent kinase 9 (Q96SW2 whole entry): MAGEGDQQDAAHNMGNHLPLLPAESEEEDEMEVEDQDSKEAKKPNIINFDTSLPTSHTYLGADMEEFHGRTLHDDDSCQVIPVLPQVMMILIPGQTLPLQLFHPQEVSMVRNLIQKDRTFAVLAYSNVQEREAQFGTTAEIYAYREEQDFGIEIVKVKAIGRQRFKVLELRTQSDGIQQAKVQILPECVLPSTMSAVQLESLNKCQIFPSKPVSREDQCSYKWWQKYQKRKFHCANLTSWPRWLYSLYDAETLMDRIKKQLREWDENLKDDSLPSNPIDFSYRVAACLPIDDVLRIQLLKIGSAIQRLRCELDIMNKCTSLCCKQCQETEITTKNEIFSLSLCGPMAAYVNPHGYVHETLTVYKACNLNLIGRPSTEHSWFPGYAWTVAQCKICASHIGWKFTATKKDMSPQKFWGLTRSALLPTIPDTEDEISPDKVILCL
Sequence of Protein cereblon/Cyclin-dependent kinase 5 (Q00535 whole entry): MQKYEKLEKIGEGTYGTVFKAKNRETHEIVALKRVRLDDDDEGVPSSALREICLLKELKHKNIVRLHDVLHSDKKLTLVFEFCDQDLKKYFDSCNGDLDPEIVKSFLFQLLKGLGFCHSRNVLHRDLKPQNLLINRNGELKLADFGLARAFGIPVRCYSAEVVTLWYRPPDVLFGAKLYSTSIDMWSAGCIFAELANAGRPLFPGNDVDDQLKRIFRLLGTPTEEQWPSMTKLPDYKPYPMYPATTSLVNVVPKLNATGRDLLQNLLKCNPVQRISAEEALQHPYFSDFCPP
Sequence of Protein cereblon/Cyclin-dependent kinase 5 (Q96SW2 whole entry): as the sequence (Q96SW2 whole entry) above
Sequence of Cyclin-dependent kinase 9 (P50750 whole entry): as the sequence (P50750 whole entry) above
Sequence of Cyclin-dependent kinase 5 (Q00535 whole entry): as the sequence (Q00535 whole entry) above

Row | pKd [1] | pKd [2] | pIC50 [3] | pIC50 [4] | pIC50 [5] | SMILES
1 | 6.64 | 5.97 | 5.97 | 7.49 | – | O=C1CCC(N2C(=O)c3cccc(OCCCCCOc4ccc(CC(=O)Nc5cc(C6CCC6)n[nH]5)cc4)c3C2=O)C(=O)N1 (configuration not stated)
2 | – | – | 6.28 | 8.15 | 6.81 | O=C(CCCOc1ccc(CC(=O)Nc2cc(C3CCC3)[nH]n2)cc1)NCCCCNc1cccc2c1C(=O)N(C1CCC(=O)NC1=O)C2=O (configuration not stated)
